Data reported in patent US20230172913A1, “COMPOUNDS FOR USE IN THE REACTIVATION OF HIV IN LATENT HIV-INFECTED CELLS” (CENTRE NATIONAL DE LA RECHERCHE SCIENTIFIQUE, priority 2020, published 2023).
Where “and” joins values, the source holds several entries; their conditions need not be identical. Identical values can stand only once.

Tests used:
[1] = test system: J-Lat 9.2 latent cells; assay: LRA activity on J-Lat 9.2 latent cells (GFP, FACS); format: cell-based; details: 5 μM, 24 h, GFP fluorescence by FACS
Protocol: FIG. 3A LRA activity of the compounds (1), (2) (3) (C-1, C-2, C-3) and SAHA (histone deacetylase inhibitor) at 5 μM on J-Lat 9.2 latent cells (derived from Jurkats). J-Lat 9.2 have a complete (single) HIV genome with a non-functional Env gene, and a GFP instead of Nef (Symons, J., and al., Retrovirology, 2017. 14(1): p. 2; Jordan, A., and al., The EMBO journal, 2003. 22(8): p. 1868-77). The activation of these viruses can be followed by the production of GFP and therefore by the detection of green fluorescence in the cells, followed by FACS. n=3. Means+/−SEM.**, p<0.01, compared to the drug-free control (One-way ANOVA).
To test the LRA effect of the molecules, JLat9.2 cells were first used. This latent cell line (source: NIH AIDS Reagents Program, NARP) derived from Jurkat cells contains an HIV genome with an inactivated Env gene and a GFP instead of Nef (Retrovirology, 14 (2017) 2). The lifting of latency is accompanied by the emission of fluorescence from GFP. The cells were treated with molecules at 5 μM for 24 h before analysis of the cells with a FACScalibur to determine the % of cells emitting fluorescence. It can be seen in FIG. 3A that the compound (2) at 5 μM has a significant LRA activity, of the order of 20-30% of that of SAHA.

[2] = test system: Tat protein; assay: Transactivation by Tat in HeLa cells (LTR-firefly/TK-renilla luciferase); format: cell-based, HIV-1; details: for transactivation by extracellular Tat relative to control / transactivation by intracellular Tat relative to negative control: 5 μM compound, HeLa, 24 h; for transactivation by extracellular Tat relative to control: 200 nM Tat extra; for transactivation by intracellular Tat relative to negative control: Tat transfected (Tat intra)
Protocol: FIG. 2 Evaluation of the transactivating activity of the Tat protein of HeLa cells in the presence of 5 μM of the compound (2) (C-2) or of the compound (3) (C-3). HeLa cells were transfected with plasmids containing LTR-firefly and TK-renilla. In the Tat intra condition, Tat is co-transfected. 18 h after transfection the compounds (2) or (3) were added (5 μM), as well as 200 nM Tat for the Tat extra condition. The cells are lysed for the luciferase tests 24 hours later. The firefly/renilla ratio obtained under control conditions was set at 100. n=2. Means+/−SEM.**, p<0.01, ***, p<0.001 and ****, p<0.0001 compared to the drug-free control (One-way ANOVA).
For this test, the effect of the molecules on transactivation by the extracellular or intracellular Tat protein was monitored by the activity of two luciferases. On the one hand the Firefly luciferase, which is under the control of a viral promoter LTR dependent on the Tat protein, and on the other hand the Renilla luciferase (internal control), under the control of a Thymidine kinase cellular promoter independent of the Tat protein. Transactivation is expressed by the Firefly/Renilla ratio. All plasmids and the procedure have been described (Mol Biol Cell 15 (2004), 2347).
This series of experiments was carried out in the HeLa line. Cells were transfected with PEImax (Nature Comms 9 (2018) 2251). The drugs and Tat (if Tat extra) were added 18 h after transfection as indicated, and left for 24 h before lysing the cells. The luciferases are then assayed using Promega's Dual-Glo kit and a Tecan SPARK 10M plate reader. Extracellular Tat has the property of being able to enter into the cells.

[3] = test system: latent T-CD4+ lymphocyte cells from HIV-1 patients; assay: Ex vivo LRA activity on quiescent T-CD4+ cells of HIV-1 patients (p24); format: cell-based, human; details: for LRA efficacy compared with BST-1: 50-100 nM, 18-20 h, p24 in supernatant
Protocol: FIG. 5 Ex vivo LRA activity on quiescent T-CD4^+ lymphocyte cells of HIV-1 patients. T-CD4 cells were isolated by negative selection before elimination of activated cells (CD25^+, CD69^+, HLA-DR^+) to obtain quiescent cells which were treated with drugs for 18-20 h to avoid reinfections. The LRA activity of the compounds (2) (C-2) and (3) (C-3) was determined by monitoring the viral protein p24 in the supernatant using a commercial ELISA test improved by the use of a luminescent substrate. The detection limit of p24 was 0.2 pg/ml. The response to BST-1 (10 nM) was set at 100% to allow comparison of LRA efficacy between patients (1 point=1 patient).
The ex vivo LRA activity of the compounds according to the invention was tested on latent T-CD4^+ lymphocyte cells from HIV-1 patients. All 8 patients had been under ART treatment for at least 6 months and their viral load was undetectable. Blood samples (20 ml) were taken (agreement with Montpellier University Hospital, Resp: Dr Edouard Tuaillon). After purification of white blood cells on Ficoll-Hypaque, negative selection of T-CD4^+ cells, elimination of activated T-CD4 cells (CD25^+, CD69^+, HLA-DR^+) (Milenyi kits), quiescent cells were treated with the compounds for 18-20 h to avoid reinfections. An assay p24 was then performed using a luminescent reagent (Luminata forte, Millipore) at the end of the Innotest. The sensitivity of the test thus modified is ˜0.2 pg p24/ml. The response to BST-1 varied between patients from 0.2 to 80 pg/ml.

[4] = target: T1, Tat protein (86 residues, isolate BH10) (Human immunodeficiency virus type 1 group M subtype B, UniProt P69697); assay: Fluorescence polarization binding of compound to recombinant Tat protein; parameters: species or system HIV-1
T1 construct: The recombinant Tat protein (86 residues, isolate BH10); made in house; host or cells: E. coli
Protocol: (§1) The recombinant Tat protein (86 residues, isolate BH10) was produced in E. coli and purified on heparin-Sepharose then by HPLC as described (Mol Biol Cell 15 (2004), 2347). The compound (2) (MolPort) being fluorescent (λex 320 nm; λem 410 nm), the fluorescence polarization technique (Methods Appl. Fluoresc. (2016) 4(2)) and a PTI fluorimeter were used for the study of the binding of said compound (17 nM) to the Tat protein (1-60 μM) in citrate buffer (50 mM citrate; 150 mM NaCl; pH 7.2). A Kd of the order of 5 μM was measured. An identical value (˜4 μM) was obtained by surface plasmon resonance (SPR; Biacore) by passing the compound (2) in citrate buffer over immobilized Tat on a CMS chip.

[5] = target: T1, Tat protein (86 residues, isolate BH10); assay: Surface plasmon resonance (Biacore) on immobilized Tat; format: binding, HIV-1
Protocol: as §1

[6] = target: T2, Tat-TAR transcription complex (Human immunodeficiency virus type 1 group M subtype B, UniProt P69697); assay: Retardation gel, affinity for Tat-TAR complex; format: binding, HIV-1
T2 construct: made in house; host or cells: E. coli
Protocol: FIG. 1A Delay gel showing the migration of TAR RNA which is free or complexed with the Tat protein (Tat/TAR) in the presence of different concentrations (0 to 120 nM) of the compound (2) (C-2). Tat (400 nM) was incubated with 200 nM of TAR-FAM (WT or Abulge) for 1.5 h in the absence or presence of the compound (2), before separation on a 0.5×TBE 8% acrylamide gel, and acquisition of the fluorescence image. The proteins from the gel were then transferred to a nitrocellulose membrane for Tat visualization by Western blot.
FIG. 1B Quantification of the affinity of the compound (2) (C-2) for the Tat-TAR transcription complex. The Tat-TAR fluorescence band of duplicate gels was quantified and the results are shown in the graph (AU, arbitrary units). n=2. Means+/−SEM. *, p<0.05; ***, p<0.001 compared to the control without the compound (2) (One-way ANOVA).
The affinity of the compound (2) for the Tat-TAR complex was studied by retardation gel. […] The fluorescence of the gel is first visualized with a Chemidoc (Biorad) to detect fluorescein (that is to say TAR). […]

[7] = test system: latent OM10.1 cells (promyeloblasts); assay: LRA activity on OM10.1 latent cells (p24 ELISA); format: cell-based; details: 5 μM, p24 in supernatant
Protocol: FIG. 3B LRA activity of the compound (2) (C-2) and SAHA at 5 μM on latent OM10.1 cells (promyeloblasts). These latent cells, after induction, produce infectious viruses which are assayed in the supernatant by ELISA p24. n=2. Means+/−SEM.*, p<0.05 and ***, p<0.001 compared to the control medium alone (One-way ANOVA).
The results for the compound (2) were confirmed using another latent cell line, OM10.1 (promyeloblasts; source NARP; PLoS Pathog. 11 (2015) 1) which produces infectious HIV after induction. It was assayed by the viral antigen p24 (HIV-1 capsid protein) in the supernatant using an ELISA kit (Innotest).

[8] = test system: latent cell line ACH-2; assay: Specificity: HIV-1 production in ACH-2 latent cells with mutated TAR (p24 ELISA); format: cell-based; details: compound (2), SAHA 5 μM, BST-1 10 nM
Protocol: Means+/−SEM. ****, p<0.0001 compared to the solvent control (One-way ANOVA).
Once induced, these cells produce infectious virions. For these tests, the viral antigen p24 in the cell supernatant was assayed with the Innotest p24 ELISA kit.

[9] = test system: Tat protein; assay: Transactivation test on primary T-CD4 cells; format: cell-based, HIV-1; details: primary T-CD4 cells transfected with Tat, 24 h
Protocol: FIG. 6 Transactivation test on primary T-CD4 cells. Primary T-CD4 cells were isolated from the blood of healthy donors, then they were transfected with plasmids containing Tat, LTR-firefly and TK-renilla. 18 h after transfection different concentrations of the compound (2) (C-2) were added, and the lysed cells for the luciferase tests 24 h later. n=3. Means+/−SEM. *, p<0.05 and ***, p<0.001 compared to the control without C-2 (One-way ANOVA).
To verify this point, a transactivation test was carried out with primary T-CD4 cells. […] The need to use doses 100 times higher on cancerous cells (that is to say 5-10 μM) is due to the cancerization process of these cells.

T2 sequence (P69697 whole entry, one chain of several): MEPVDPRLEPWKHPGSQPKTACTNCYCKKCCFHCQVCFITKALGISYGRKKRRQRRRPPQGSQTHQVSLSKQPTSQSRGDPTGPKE
T1 sequence (P69697 whole entry): as the sequence (P69697 whole entry, one chain of several) above

| Compound | LRA activity (in words) [1] | transactivation by extracellular Tat relative to control [2] [times] | transactivation by intracellular Tat relative to negative control [2] [times] | LRA efficacy compared with BST-1 [3] | Kd [4] [µM] | Kd [5] [µM] | concentration stabilizing the Tat-TAR transcription complex [6] | Kd ([6]; retardation gel, 400 nM Tat, 200 nM TAR, 1.5 h at 25° C.) [µM] | effective concentrations on laboratory cell lines ([2]; all the tests on laboratory cell lines (HeLa and That)) [µM] | LRA activity relative to that of SAHA [7] [%] | induction of HIV-1 production (p24) [8] | concentration sufficient for the LRA effect ex vivo ([3]; latent primary cells) | concentration most effective in activating transactivation by Tat [9] [nM] |
| --- | --- | --- | --- | --- | --- | --- | --- | --- | --- | --- | --- | --- | --- |
| COc1ccc(-c2nn3ccnc3s2)cc1NC(=O)c1ccc(OCc2ccccc2)cc1 [(1), 4-(benzyloxy)-N-(5-{imidazo[2,1-b][1,3,4]thiadiazol-2-yl}-2-methoxyphenyl)benzamide] | significant activity | – | – | – | – | – | – | – | – | – | – | – | – |
| O=C(Nc1ccc(-c2nc3ccccc3[nH]2)cc1)c1cccc(OCc2ccccc2)c1 [(3), N-[4-(1H-1,3-benzodiazol-2-yl)phenyl]-3-(benzyloxy)benzamide] | close to that of SAHA | 108 | 9 | at least as effective as BST-1 | – | – | – | – | – | – | – | – | – |
| COc1cc(C(=O)Nc2cc(-c3nc4ccccc4[nH]3)ccc2C)ccc1OCc1ccc(Cl)cc1 [Compound (2), N-[5-(1H-1,3-benzodiazol-2-yl)-2-methylphenyl]-4-[(4-chlorophenyl)methoxy]-3-methoxybenzamide] | – | 60 | 3.9 | at least as effective as BST-1 | ~5 | ~4 | 50 to 100 nM and 80 nM | ~0.08 | ~5 | ~40 | incapable of inducing the production of HIV-1 | 50 to 100 nM and 50 nM | 30 |
